One assay relates to IMR90. Put plainly: Conversion of fibroblast cell line to neural cell / iOPC in neural induction medium. The format is cell-based, human. The note with it: for conversion into neural cell: 10 μM in neural induction medium, IMR90. On the procedure:
(§1) Using the same method with EXAMPLE 1, cultured fiber cell line IMR90 and WI38 with neural induction medium including 10 μM Y27632, Palomid 529, LY294002, PF562271 or rapamycin.
(§2) In contrast, after 4 weeks in the same induction medium without ROCK inhibitor, cells kept fibroblast morphology with negative staining of O4, A2B5, and S100β (data not shown). […] To confirm conversion of fibroblasts to iOPCs by ROCK inhibitor, additional two human primary fibroblast cell lines, IMR90 and WI38, were tested using the same fibroblast—OPC conversion conditions. Consistent with the results from adult dermal cells, inventors observed 60-80% of fibroblast—OPC conversion in these two cell lines (data not shown). Next, inventors assessed whether the iOPCs could differentiate into mature oligodendrocytes. After removing growth factors and addition of thyroid hormone (a known inducer of oligodendrocyte differentiation) in cell culture medium, about 70% of the iOPCs differentiated into cells with a multiprocessed morphology typical of oligodendrocytes within 3-7 days (FIG. 2b). The oligodendrocytes expressed myelin basic protein (MBP), an integral protein component of the myelin sheath, and other defining markers of mature oligodendrocytes, including myelin-associated glycoprotein and myelin oligodendrocyte glycoprotein (FIG. 2b). Thus, inventors concluded that ROCK inhibitor-induced iOPCs can be further differentiated into mature functional oligodendrocytes.

In the next assay the test system is WI38. The description is as above. It is filed as cell-based, human. Conditions: for conversion into neural cell: 10 μM in neural induction medium, WI38. The method, then: as §1, §2
Assay [1] has as its system human adult dermal fibroblasts. Put plainly: Screening of protein kinase inhibitor library for fibroblast-OPC conversion. The format is cell-based. Conditions: with retinoic acid (RA), neural induction medium, quantified on day 7. On the procedure: 1. Coated cell culture 24-well plate with 0.1 mg/ml Poly-L-ornithine solution (sigma, P4957) for at least 3 hours. Then washed wells 3 times with autoclaved MilliQ water, 5 mins per time.
2. Added 500 ul/well of […] Fibronectin (sigma, F0556) and […] Laminin (ROCHE, 11243217001) solution in 1×PBS and placed in incubator overnight to coat.
3. Aspirated the Fibronectin/Laminin solution from the wells, washed with culture medium.
4. Plated fibroblast cells with Basic Medium at 2×10^4 cells (human adult dermal fibroblasts, ATCC, PCS-201-012) per well, cultured overnight. The Basic Medium comprises: DMEM high glucose (HyClone, SH30022), 10% FBS (Fisher Scientific, SH3007003), 10 mM HEPES (CORNING 25060-CL), 1×MEM NEAA (100×) (GIBCO, 11140) (MEM Non-Essential Amino Acids Solution), 1 mM Na Pyruvate (GIBCO, 25000), 1×2-Mercaptoethanol (1000×) (GIBCO, 21985), 1× Glutamax (100×) (GIBCO, 35050), penicillin/streptomycin.
5. Aspirated Basic Medium from the wells.
7. Fed wells with Induction Medium. Changed medium every two days. […]

For the next assay, the system named is dermal fibroblasts. Put plainly: Immunostaining of OPC-specific biomarkers after 7-day induction. The format is cell-based, human. On the procedure:
After 7-day induction with ROCK inhibitor treatment, cells were fixed and analyzed by immunostaining of the OPC-specific biomarker, O4. Immunofluorescence staining was performed as following steps:
Briefly, 5×10^4 modified human fibroblasts were planted on coated glass coverslips the day before induction. After induction, cells were fixed for 20 min at room temperature in 4% paraformaldehyde in PBS, permeabilized for 30 min in PBS containing 0.2% Triton X-100 and 10% normal goat serum (NGS), and incubated overnight at 4° C. in PBS containing 10% NGS and primary antibodies. Then cells were washed three times with PBS and incubated for 2 h at room temperature with anti-rabbit or anti-mouse secondary antibodies Alexa Fluor-488 or Alexa Fluor-594 (1:500, Invitrogen). The images were acquired by immunofluorescence microscope or Zeiss LSM 510 META confocal microscope with 40×, 1.3 numerical aperture oil-immersion objective.
The following antibodies were used for the immunofluorescence studies: mouse anti-04 (Millipore, 1:50), rabbit anti-NF (Sigma-Aldrich, 1:1000), mouse anti-A2B5 (Millipore, 1:50), MBP (1:100, Covance; 1:100, Abcam), MAG (Millipore, 1:50), MOG (Millipore, 1:50).

A further assay deals with IMR90 fibroblasts. Nature of the assay: Direct conversion of fibroblasts to neurons and astrocytes. The format is cell-based, human. The method, then:
To assess the general application of ROCK inhibitor for direct conversion of different neural cells, inventors tweaked the protocol for induction of iOPCs and successfully converted fibroblasts to typical neurons and astrocytes. using the following procedure:
at Day 1, coat tissue culture 24-well plate with 0.1 mg/ml Poly-L-ornithine solution (sigma, P4957) for at least 3 hours; wash wells 3 times with autoclaved MilliQ water, 5 mins each; add 500 ul/well of 2 μg/ml Fibronectin (sigma, F0556) and 10 μg/ml Laminin (ROCHE, 11243217001) solution in 1×PBS and place in incubator overnight to coat. At Day 2, aspirate the F/L solution from the well, wash with basic medium and plate fibroblast cells with basic medium at 2×10^4 cells per well. At Day 3, aspirate basic medium from the well, wash with PBS once, and feed cells with induction medium. From Day 6-10, when cells change their morphology into neural-like cells, culture cells with mature medium or OPC medium.

`CN(c1ncccc1CNc1nc(Nc2ccc3c(c2)CC(=O)N3)ncc1C(F)(F)F)S(C)(=O)=O` [PF562271]: the “conversion into neural cell” value in the assay with IMR90 and in the assay on WI38 was “converted into neural cell” throughout.

As to `COc1ccc(COc2cc3oc(=O)c4cc(C(C)O)ccc4c3cc2OC)cc1` (stereo not shown) [Palomid 529], the “conversion into neural cell” value with IMR90 and in the assay on WI38 was “converted into neural cell” throughout.

Turning to `C[C@@H](N)[C@H]1CC[C@H](C(=O)Nc2ccncc2)CC1` [Y27632], the “efficiency of conversion of human fibroblasts into iOPCs (OPC positive cells counted by morphology)” value in assay [1] is given as ~80%. Also, the “conversion into neural cell” value with IMR90 and in the assay with WI38 was “converted into neural cell” each time. Further, the fibroblast-OPC conversion with IMR90 (IMR90, same conversion conditions (data not shown)) is given as 60-80%; in the assay with WI38 (WI38, same conversion conditions (data not shown)), 60-80%. Moreover, the “dermal fibroblasts converted to O4-positive cells with OPC morphology” value in the assay with dermal fibroblasts (7-day induction) was “about 80%”. The “staining with additional OPC markers A2B5 and S100β” value with dermal fibroblasts (O4 positive cells after 7-day induction) is on record as “positive staining”. For the same compound, in the assay with IMR90 fibroblasts (induced astrocytes), the “staining of astrocyte-specific biomarker GFAP in induced astrocytes” value was “positive staining”. In addition, in the assay with IMR90 fibroblasts (induced neuronal cells (iNCs)), the “staining of neuronal biomarkers Tuj and MAP2 in induced neuronal cells” value is given as “positive staining”.
